Results reported in PMC5500509, “The prognostic biomarker L-homoarginine is a substrate of the cationic amino acid transporters CAT1, CAT2A and CAT2B” (Scientific Reports, 2017).
Read-outs that look alike come from different tables or passages of the source.

What was measured:
human CAT2A (SLC7A2A) [1] = molecular target: T1, human CAT2A (SLC7A2A) (Homo sapiens, UniProt P52569); test: Inhibition of CAT2A-mediated substrate uptake in HEK CAT2A cells; assay type: cell-based; settings: for inhibition of CAT2A-mediated transport of L-homoarginine: substrate L-homoarginine 100 µmol/l, inhibitor 1-10000 µmol/l, IC50 not calculable
T1 construct: expressed in transfected cells
Procedure: Cell lines and basic cell culture conditions have previously been described, [24]. The original choice of human embryonic kidney cells (HEK293) cells for transfection with CAT1-, CAT2A- or CAT2B- was based on their reliable growth and well established propensity for transfection and cellular uptake experiments. In brief, uptake assays were performed using [^3H]-labeled substrate and human embryonic kidney (HEK293) cells stably overexpressing the empty vector only (HEK VCG418 and HEK VChygro, depending on selection conditions) or human CAT1 (HEK CAT1, gene: SLC7A1, NM_003045.4), CAT2A (HEK CAT2A, gene: SLC7A2A, NM_003046.5) or CAT2B (HEK CAT2B, SLC7A2B, NM_001008539.3). The cells were cultured in minimal essential medium containing 10% heat-inactivated fetal bovine serum, 100 U/l penicillin, 100 μg/ml streptomycin, and either G418 (800 µg/ml) or hygromycin B (260 µg/ml) at 37 °C and 5% CO2 with subculture as required. Trypsin (0.05%)-EDTA (0.02%) solution was used to detach cells. […]
The transport assays were performed as previously described with minor modifications, [24]. […] In order to identify the period of linear L-homoarginine uptake time dependence was assessed. […]
(§1) After cooling to 0 °C the cells were washed three times with ice-cold transport buffer and lysed with 0.2% SDS. The intracellular accumulation of radioactivity was determined by liquid scintillation counting (TriCarb 2800; PerkinElmer Life and Analytical Sciences, Inc.) after adding 4 ml of scintillation solution (Ultima Gold XR; PerkinElmer Life and Analytical Sciences, Inc., Rodgau-Jügesheim, Germany). […]
(§2) Statistical analysis was performed using GraphPad Prism 5 (version 5.01, 2007, GraphPad Software, San Diego, CA, USA). Net transport data were calculated as the difference of uptake from cells transfected with the respective CAT transporter and the corresponding empty control vector. […] KM-values for the uptake transport were calculated using Michaelis–Menten enzyme kinetics. The corresponding IC50 values for inhibition were calculated by fitting the data to a sigmoid dose–response regression curve. […]

human CAT2B (SLC7A2B) [2] = molecular target: T2, human CAT2B (SLC7A2B) (Homo sapiens, UniProt P52569); test: Inhibition of CAT2B-mediated substrate uptake in HEK CAT2B cells; assay type: cell-based
T2 construct: expressed in transfected cells
Procedure: (§3) Cell lines and basic cell culture conditions have previously been described, [24]. The original choice of human embryonic kidney cells (HEK293) cells for transfection with CAT1-, CAT2A- or CAT2B- was based on their reliable growth and well established propensity for transfection and cellular uptake experiments. In brief, uptake assays were performed using [^3H]-labeled substrate and human embryonic kidney (HEK293) cells stably overexpressing the empty vector only (HEK VCG418 and HEK VChygro, depending on selection conditions) or human CAT1 (HEK CAT1, gene: SLC7A1, NM_003045.4), CAT2A (HEK CAT2A, gene: SLC7A2A, NM_003046.5) or CAT2B (HEK CAT2B, SLC7A2B, NM_001008539.3). The cells were cultured in minimal essential medium containing 10% heat-inactivated fetal bovine serum, 100 U/l penicillin, 100 μg/ml streptomycin, and either G418 (800 µg/ml) or hygromycin B (260 µg/ml) at 37 °C and 5% CO2 with subculture as required. Trypsin (0.05%)-EDTA (0.02%) solution was used to detach cells. All cell culture media supplements were obtained from Invitrogen GmbH (Karlsruhe, Germany).
(§4) The transport assays were performed as previously described with minor modifications, [24]. Cells were seeded into poly-D-lysine-coated 12-well plates. Sodium butyrate (10 mmol/l) was added after 24 h of culture for 24 h to enhance CAT1, CAT2A or CAT2B protein expression. […] In order to identify the period of linear L-homoarginine uptake time dependence was assessed. Cells were incubated with the transport buffer containing 100 μmol/L L-homoarginine at 37 °C for 1, 2.5, 5, 10 and 30 min. For determination of kinetic parameters of CAT-mediated L-homoarginine transport increasing L-homoarginine concentrations and an incubation time of 2.5 min were used.
as §1, with “Germany). A bicinchoninic acid assay was used to assess the protein concentrations.” for “Germany).”
as §2

human CAT1 (SLC7A1) [3] = molecular target: T3, human CAT1 (SLC7A1) (Homo sapiens, UniProt P30825); test: Inhibition of CAT1-mediated substrate uptake in HEK CAT1 cells; assay type: cell-based
T3 construct: expressed in transfected cells
Procedure: as §3, §4
as §1, with “Germany). A bicinchoninic acid assay was used to assess the protein concentrations.” for “Germany).”
as §2

rat hepatocytes = test system: rat hepatocytes; design: method as in PMID 7068644; settings: read-out: KM for uptake of L-homoarginine by cells; cited from earlier work
fibroblasts = test system: fibroblasts; design: method as in PMID 7040384; settings: read-out: KM for uptake of L-homoarginine by cells; cited from earlier work
human CAT1 (SLC7A1) [4] = molecular target: T3, human CAT1 (SLC7A1); test: CAT1-mediated uptake of [3H]-L-homoarginine in HEK293 cells overexpressing CAT1; assay type: cell-based
Procedure: as §3
as §4, with “For determination of kinetic parameters of CAT-mediated L-homoarginine transport increasing L-homoarginine concentrations and an incubation time of 2.5 min were used.” left out
as §2

[5] = design: method as in PMID 27434056; settings: healthy volunteers, augmented from 2.9 µmol/l; cited from earlier work
human CAT2A (SLC7A2A) [6] = molecular target: T1, human CAT2A (SLC7A2A); test: CAT2A-mediated uptake of [3H]-L-homoarginine in HEK293 cells overexpressing CAT2A; assay type: cell-based
Procedure: as §3
as §4, with “For determination of kinetic parameters of CAT-mediated L-homoarginine transport increasing L-homoarginine concentrations and an incubation time of 2.5 min were used.” left out
as §2

human CAT2B (SLC7A2B) [7] = molecular target: T2, human CAT2B (SLC7A2B); test: CAT2B-mediated uptake of [3H]-L-homoarginine in HEK293 cells overexpressing CAT2B; assay type: cell-based
Procedure: as §3
as §4, with “For determination of kinetic parameters of CAT-mediated L-homoarginine transport increasing L-homoarginine concentrations and an incubation time of 2.5 min were used.” left out
as §2

[8] = substrate L-homoarginine 100 µmol/l, inhibitor 1-10000 µmol/l, read-out: IC50 for inhibition of CAT2B-mediated uptake of L-homoarginine
[9] = net uptake, 2.5 min incubation, 37 °C

T2 sequence (P52569 whole entry): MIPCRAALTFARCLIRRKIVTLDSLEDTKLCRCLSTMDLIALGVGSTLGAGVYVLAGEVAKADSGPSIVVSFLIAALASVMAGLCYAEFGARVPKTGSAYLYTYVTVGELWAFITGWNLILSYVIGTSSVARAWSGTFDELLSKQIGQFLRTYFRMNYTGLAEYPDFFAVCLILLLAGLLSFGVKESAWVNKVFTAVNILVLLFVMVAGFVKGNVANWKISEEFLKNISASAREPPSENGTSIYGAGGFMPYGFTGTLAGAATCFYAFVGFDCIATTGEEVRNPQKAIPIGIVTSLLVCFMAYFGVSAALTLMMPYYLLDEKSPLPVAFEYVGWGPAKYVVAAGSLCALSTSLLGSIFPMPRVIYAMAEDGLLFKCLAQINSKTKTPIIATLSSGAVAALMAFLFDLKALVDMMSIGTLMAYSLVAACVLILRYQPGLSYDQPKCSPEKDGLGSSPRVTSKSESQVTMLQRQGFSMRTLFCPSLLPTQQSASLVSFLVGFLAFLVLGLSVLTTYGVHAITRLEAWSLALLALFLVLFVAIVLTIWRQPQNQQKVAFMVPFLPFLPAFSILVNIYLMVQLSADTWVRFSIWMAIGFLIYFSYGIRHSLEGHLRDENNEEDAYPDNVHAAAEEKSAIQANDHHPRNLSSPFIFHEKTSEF
T1 sequence (P52569 1-697 isoform P52569-2): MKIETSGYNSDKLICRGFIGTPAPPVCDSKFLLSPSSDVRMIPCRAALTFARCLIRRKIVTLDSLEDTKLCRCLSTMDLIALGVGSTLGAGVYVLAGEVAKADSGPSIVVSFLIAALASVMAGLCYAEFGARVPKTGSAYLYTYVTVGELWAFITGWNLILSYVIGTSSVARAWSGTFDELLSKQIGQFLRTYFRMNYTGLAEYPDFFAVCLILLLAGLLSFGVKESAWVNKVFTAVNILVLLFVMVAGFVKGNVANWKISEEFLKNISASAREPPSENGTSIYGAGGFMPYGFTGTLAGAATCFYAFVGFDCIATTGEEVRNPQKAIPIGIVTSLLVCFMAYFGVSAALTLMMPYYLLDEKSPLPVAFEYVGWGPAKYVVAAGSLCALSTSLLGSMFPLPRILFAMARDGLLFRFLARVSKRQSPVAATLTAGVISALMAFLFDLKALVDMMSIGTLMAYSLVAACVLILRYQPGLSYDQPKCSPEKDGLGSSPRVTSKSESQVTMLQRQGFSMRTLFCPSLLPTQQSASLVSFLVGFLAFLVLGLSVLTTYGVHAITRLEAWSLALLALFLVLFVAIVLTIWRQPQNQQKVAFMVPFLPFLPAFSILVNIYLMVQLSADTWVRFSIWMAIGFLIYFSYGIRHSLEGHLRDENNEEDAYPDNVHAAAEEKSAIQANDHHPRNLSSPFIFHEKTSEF
T3 sequence (P30825 whole entry): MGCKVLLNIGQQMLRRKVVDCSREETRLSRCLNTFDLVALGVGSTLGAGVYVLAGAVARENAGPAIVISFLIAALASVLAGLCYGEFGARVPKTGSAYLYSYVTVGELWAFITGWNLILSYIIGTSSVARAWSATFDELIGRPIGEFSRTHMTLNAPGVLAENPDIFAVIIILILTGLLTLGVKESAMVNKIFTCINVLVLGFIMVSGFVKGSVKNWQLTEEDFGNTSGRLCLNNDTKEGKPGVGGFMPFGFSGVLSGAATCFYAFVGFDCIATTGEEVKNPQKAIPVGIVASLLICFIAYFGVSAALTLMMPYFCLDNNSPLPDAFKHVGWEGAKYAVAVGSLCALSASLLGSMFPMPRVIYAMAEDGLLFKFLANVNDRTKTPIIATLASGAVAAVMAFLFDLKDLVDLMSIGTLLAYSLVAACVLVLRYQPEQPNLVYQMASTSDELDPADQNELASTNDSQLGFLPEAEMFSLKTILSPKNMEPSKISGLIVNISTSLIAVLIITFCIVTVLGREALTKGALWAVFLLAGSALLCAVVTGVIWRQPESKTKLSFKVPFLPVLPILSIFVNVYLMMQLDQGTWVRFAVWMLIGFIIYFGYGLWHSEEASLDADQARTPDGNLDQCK

With `CN(C)C(N)=NCCC[C@H](N)C(=O)O` [ADMA, asymmetric dimethylarginine, reference compound] the “inhibition of CAT2A-mediated transport of L-homoarginine” value (human CAT2A (SLC7A2A) [1]) was “could only be inhibited by very high (10000 µmol/l) concentrations”, the IC50 (human CAT2B (SLC7A2B) [2]; [8]) was 608 µM and the IC50 (human CAT1 (SLC7A1) [3]; substrate L-homoarginine 100 µmol/l, inhibitor 1-10000 µmol/l, read-out: IC50 for inhibition of CAT1-mediated uptake of L-homoarginine) was 379 µM.

With `N=C(N)NCCC[C@H](N)C(=O)O` [L-arginine, reference compound] the “inhibition of CAT2A-mediated transport of L-homoarginine” value (human CAT2A (SLC7A2A) [1]) was “could only be inhibited by very high (10000 µmol/l) concentrations”, the IC50 (human CAT2B (SLC7A2B) [2]; [8]) was 1440 µM and the “inhibition of CAT1-mediated net uptake of L-homoarginine at physiological concentrations” value (human CAT1 (SLC7A1) [3]; substrate L-homoarginine 2 µmol/l, inhibitor L-arginine 100 µmol/l, p < 0.01) was “significantly inhibited”.

For `NC(N)=NCCCC[C@H](N)C(=O)O` [L-homoarginine], the IC50 (human CAT2A (SLC7A2A) [1]; substrate ADMA 100 µmol/l, inhibitor 1–100000 µmol/l) is listed as 9240 µM, the Km (rat hepatocytes) is listed as 300 µM and the Km (fibroblasts) is listed as 40 µM. The “cellular uptake of L-homoarginine vs control cells” value (from here on “cellular uptake … vs control cells”) (human CAT1 (SLC7A1) [4]; L-homoarginine 100 µmol/l, HEK CAT1 vs HEK VCG418, p < 0.001) was 7 fold, the “apparent Vmax of CAT1-mediated uptake” value (human CAT1 (SLC7A1) [4]; [9]) was 12 ± 0.1 nmol × mg protein^−1 × min^−1 and the Km (human CAT1 (SLC7A1) [4]; net uptake, 2.5 min incubation, 37 °C, read-out: apparent KM of CAT1-mediated uptake) was 175 ± 7 µM. The “mean plasma concentration after supplementation” value [5] was 17.3 µM, the “cellular uptake … vs control cells” value (human CAT2A (SLC7A2A) [6]; L-homoarginine 100 µmol/l, HEK CAT2A vs control cells, p < 0.001) was 1.6 fold and the “saturation of CAT2A-mediated uptake” value (human CAT2A (SLC7A2A) [6]; increasing L-homoarginine concentrations) was “could not be reached”. For the same compound, the “Vmax of CAT2A-mediated uptake” value (human CAT2A (SLC7A2A) [6]; net uptake, 2.5 min, 37 °C, only estimated, limited by maximally attainable L-homoarginine concentration) was > 20 nmol × mg protein^−1 × min^−1, the IC50 (human CAT2B (SLC7A2B) [2]; read-out: IC50 for inhibition of CAT2B-mediated uptake of L-arginine, substrate L-arginine 1000 µmol/l, inhibitor 1–100000 µmol/l) was 1220 µM and the IC50 (human CAT2B (SLC7A2B) [2]; substrate ADMA 100 µmol/l, inhibitor 1–100000 µmol/l, read-out: IC50 for inhibition of CAT2B-mediated uptake of ADMA) was 1860 µM. The IC50 (human CAT1 (SLC7A1) [3]; read-out: IC50 for inhibition of CAT1-mediated uptake of L-arginine, substrate L-arginine 1000 µmol/l, inhibitor 1–100000 µmol/l) was 1320 µM, the IC50 (human CAT1 (SLC7A1) [3]; substrate ADMA 100 µmol/l, inhibitor 1–100000 µmol/l, read-out: IC50 for inhibition of CAT1-mediated uptake of ADMA) was 642 µM and the “cellular uptake … vs control cells” value (human CAT2B (SLC7A2B) [7]; L-homoarginine 100 µmol/l, HEK CAT2B vs control cells, p < 0.001) was 2.2 fold. For the same compound, the “apparent Vmax of CAT2B-mediated uptake” value (human CAT2B (SLC7A2B) [7]; [9]) was 11 ± 0.2 nmol × mg protein^−1 × min^−1 and the Km (human CAT2B (SLC7A2B) [7]; net uptake, 2.5 min incubation, 37 °C, read-out: apparent KM of CAT2B-mediated uptake) was 523 ± 35 µM.
